For this assay, the target named is T1, Human CaV2.2 channels (Homo sapiens, UniProt Q00975).
T1 construct: expressed in transfected cells; Kir2.3 also stably co-expressed
As to the kind of experiment: Fluorescence assay for CaV2.2 channels using potassium depolarization to induce channel opening (FLIPR, Fluo 4). As to conditions: 30 mM KCl assay buffer (inactivated channel state), HEK293 cells; for inhibition at 3 µM: HEK293, 3 μM test compound, read-out: Activity Category: %-Inhib (CaV2.2) @3 μM @30 mM KCl; for Activity Category: %-Inhib (CaV2.2) @3 μM @30 mM KCl: 3 μM test compound. It counts as cell-based. In short, it runs like this:
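HEK293 cells stably co-expressing human CaV2.2 with α2δ and β subunits plus Kir2.3, Fluo-4 loaded; compounds preincubated 15 min at 25 °C in 1 mM or 30 mM KCl buffer (inactivated state), pH 7.4. Depolarized by KCl addition; baseline-normalized peak fluorescence (ex 480/em 535 nm) gave inhibition.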

The source of these data is US9896440B2, “Aryl substituted heterocyclyl sulfones” (GRÜNENTHAL GMBH, priority 2014, dated 2018).

SMILES strings stand for the structures.

T1 sequence (Q00975 whole entry): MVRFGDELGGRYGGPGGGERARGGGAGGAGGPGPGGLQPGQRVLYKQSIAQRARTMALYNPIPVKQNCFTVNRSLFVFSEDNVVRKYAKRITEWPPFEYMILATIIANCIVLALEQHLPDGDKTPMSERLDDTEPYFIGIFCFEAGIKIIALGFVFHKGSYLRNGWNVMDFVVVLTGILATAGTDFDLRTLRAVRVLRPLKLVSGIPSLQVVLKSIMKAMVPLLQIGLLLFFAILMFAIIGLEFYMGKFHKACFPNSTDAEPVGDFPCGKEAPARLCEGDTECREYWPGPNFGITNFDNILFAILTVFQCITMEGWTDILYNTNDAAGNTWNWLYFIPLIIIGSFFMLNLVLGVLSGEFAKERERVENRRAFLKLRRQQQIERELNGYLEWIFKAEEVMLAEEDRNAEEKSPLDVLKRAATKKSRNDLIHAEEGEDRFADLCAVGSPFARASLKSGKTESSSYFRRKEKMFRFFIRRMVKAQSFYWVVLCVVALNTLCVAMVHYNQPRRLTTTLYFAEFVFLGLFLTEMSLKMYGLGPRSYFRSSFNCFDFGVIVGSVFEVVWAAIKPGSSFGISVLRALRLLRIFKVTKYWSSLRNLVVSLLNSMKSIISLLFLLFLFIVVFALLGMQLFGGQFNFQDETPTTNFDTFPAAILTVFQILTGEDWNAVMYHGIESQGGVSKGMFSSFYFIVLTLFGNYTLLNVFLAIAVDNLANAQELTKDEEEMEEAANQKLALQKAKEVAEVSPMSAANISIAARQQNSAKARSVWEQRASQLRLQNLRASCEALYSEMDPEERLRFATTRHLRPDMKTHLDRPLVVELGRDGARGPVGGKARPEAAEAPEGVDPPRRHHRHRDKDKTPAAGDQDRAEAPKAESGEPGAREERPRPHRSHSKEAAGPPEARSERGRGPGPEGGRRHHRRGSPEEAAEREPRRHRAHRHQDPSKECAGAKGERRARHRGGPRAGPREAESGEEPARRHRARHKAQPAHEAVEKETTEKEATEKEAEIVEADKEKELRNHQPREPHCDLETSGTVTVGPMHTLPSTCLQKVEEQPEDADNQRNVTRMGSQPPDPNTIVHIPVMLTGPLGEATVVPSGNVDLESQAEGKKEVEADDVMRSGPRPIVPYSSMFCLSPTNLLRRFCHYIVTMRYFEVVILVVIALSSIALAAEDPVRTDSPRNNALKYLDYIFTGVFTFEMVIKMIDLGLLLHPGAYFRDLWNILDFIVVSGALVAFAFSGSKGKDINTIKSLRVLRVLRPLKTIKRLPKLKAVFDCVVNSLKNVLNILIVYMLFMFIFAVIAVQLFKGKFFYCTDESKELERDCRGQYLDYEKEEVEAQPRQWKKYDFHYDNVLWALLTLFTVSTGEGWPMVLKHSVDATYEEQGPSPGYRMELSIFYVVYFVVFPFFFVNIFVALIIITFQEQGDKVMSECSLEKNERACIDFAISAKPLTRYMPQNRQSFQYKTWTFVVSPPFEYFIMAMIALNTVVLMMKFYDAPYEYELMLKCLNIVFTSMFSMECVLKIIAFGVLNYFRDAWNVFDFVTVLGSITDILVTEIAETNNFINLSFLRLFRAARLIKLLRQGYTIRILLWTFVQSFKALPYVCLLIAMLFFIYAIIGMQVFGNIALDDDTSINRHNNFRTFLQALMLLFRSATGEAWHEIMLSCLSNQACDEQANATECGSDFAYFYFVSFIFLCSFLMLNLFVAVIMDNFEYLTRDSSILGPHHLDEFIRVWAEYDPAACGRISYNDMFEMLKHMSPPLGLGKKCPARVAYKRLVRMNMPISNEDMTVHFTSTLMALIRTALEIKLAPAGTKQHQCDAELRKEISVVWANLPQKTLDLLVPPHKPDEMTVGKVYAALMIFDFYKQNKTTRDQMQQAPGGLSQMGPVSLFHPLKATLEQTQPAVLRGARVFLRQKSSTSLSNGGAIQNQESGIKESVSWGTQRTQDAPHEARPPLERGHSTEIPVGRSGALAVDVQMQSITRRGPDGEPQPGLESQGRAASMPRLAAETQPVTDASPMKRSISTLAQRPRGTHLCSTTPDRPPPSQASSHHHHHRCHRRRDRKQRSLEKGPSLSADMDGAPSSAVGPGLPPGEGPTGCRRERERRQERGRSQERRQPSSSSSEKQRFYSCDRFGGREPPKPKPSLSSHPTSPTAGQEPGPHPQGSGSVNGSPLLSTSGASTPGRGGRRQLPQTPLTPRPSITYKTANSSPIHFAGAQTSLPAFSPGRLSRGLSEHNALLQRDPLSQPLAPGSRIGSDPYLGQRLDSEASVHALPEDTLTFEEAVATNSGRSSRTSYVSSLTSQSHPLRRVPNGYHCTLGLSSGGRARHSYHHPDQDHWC

`CC1(S(=O)(=O)c2cccc(C(F)(F)F)c2)CCOC(c2cc(S(C)(=O)=O)ccc2F)C1` (stereo not shown) [SC-294, 2-(2-Fluoro-5-methylsulfonyl-phenyl)-4-methyl-4-[[3-(trifluoromethyl)phenyl]sulfonyl]-tetrahydro-pyran]: the inhibition at 3 µM was 75 to 95%.

As for `CC1(S(=O)(=O)c2cccc(C(F)(F)F)c2)CCOC(c2cc(F)cc(S(C)(=O)=O)c2)C1` (stereo not shown) [SC-296, 2-(3-Fluoro-5-methylsulfonyl-phenyl)-4-methyl-4-[[3-(trifluoromethyl)phenyl]sulfonyl]-tetrahydro-pyran], the inhibition at 3 µM was 75 to 95%.

Consider `CC1(S(=O)(=O)c2cccc(C(F)(F)F)c2)CCOC(c2cc(F)cc(S(C)(=O)=O)c2)C1` (stereo not shown) [SC-297, 2-(3-Fluoro-5-methylsulfonyl-phenyl)-4-methyl-4-[[3-(trifluoromethyl)phenyl]sulfonyl]-tetrahydro-pyran], for which the “Activity Category: %-Inhib (CaV2.2) @3 μM @30 mM KCl” value (“Activity Category: %-Inhib” below) is “A (%-Inhibition >95%)”.

`CC1(C)CC(C)(S(=O)(=O)c2cccc(C(F)(F)F)c2)CC(c2ccc(Cl)cc2)O1` (stereo not shown) [SC-300, 6-(4-Chlorophenyl)-2,2,4-trimethyl-4-[[3-(trifluoromethyl)phenyl]sulfonyl]-tetrahydro-pyran]: the inhibition at 3 µM was over 95%.

On to `CC1(C)CC(C)(S(=O)(=O)c2cccc(C(F)(F)F)c2)CC(c2ccc(Cl)cc2)O1` (stereo not shown) [SC-301, 6-(4-Chlorophenyl)-2,2,4-trimethyl-4-[[3-(trifluoromethyl)phenyl]sulfonyl]-tetrahydro-pyran], for which the “Activity Category: %-Inhib” value is “B (%-Inhibition >75% up to ≦95%)”.

Turning to `CC1(S(=O)(=O)c2cc(F)cc(C(F)(F)F)c2)CCOC(c2ccc(Cl)cc2)C1` (stereo not shown) [SC-303, 2-(4-Chlorophenyl)-4-[[3-fluoro-5-(trifluoromethyl)-phenyl]sulfonyl]-4-methyl-tetrahydro-pyran], the inhibition at 3 µM was in the range of 75 to 95%.

Regarding `CC1(S(=O)(=O)c2cc(F)cc(C(F)(F)F)c2)CCOC(c2ccc(Cl)cc2)C1` (stereo not shown) [SC-304, 2-(4-Chlorophenyl)-4-[[3-fluoro-5-(trifluoromethyl)-phenyl]sulfonyl]-4-methyl-tetrahydro-pyran], the “Activity Category: %-Inhib” value is on record as “A (%-Inhibition >95%)”.

As to `CCC1(S(=O)(=O)c2cccc(C(F)(F)F)c2)CCOC(C2CC2)C1` (stereo not shown) [SC-306, 2-Cyclopropyl-4-ethyl-4-[[3-(trifluoromethyl)phenyl]sulfonyl]-tetrahydro-pyran], the inhibition at 3 µM lay within 40 to 75%.

As to `CC1(S(=O)(=O)c2cccc(C(F)(F)F)c2)CCOC(c2ccc(Cl)cc2)C1` (stereo not shown) [SC-310, 2-(4-Chlorophenyl)-4-methyl-4-[[3-(trifluoromethyl)phenyl]sulfonyl]-tetrahydro-pyran], the inhibition at 3 µM is over 95%.

For the compound `CC1(S(=O)(=O)c2cccc(C(F)(F)F)c2)CCOC(c2ccc(Cl)cc2)C1` (stereo not shown) [SC-311, 2-(4-Chlorophenyl)-4-methyl-4-[[3-(trifluoromethyl)phenyl]sulfonyl]-tetrahydro-pyran], the “Activity Category: %-Inhib” value was “A (%-Inhibition >95%)”.

Turning to `CC1(S(=O)(=O)c2cccc(C(F)(F)F)c2)CCOC(c2ccc(Cl)cc2)C1` (stereo not shown) [SC-312, 2-(4-Chlorophenyl)-4-methyl-4-[[3-(trifluoromethyl)phenyl]sulfonyl]-tetrahydro-pyran], the “Activity Category: %-Inhib” value is reported as “B (%-Inhibition >75% up to ≦95%)”.

Consider `CC1(S(=O)(=O)c2cccc(OC(F)(F)F)c2)CCOC(c2ccc(Cl)cc2)C1` (stereo not shown) [SC-313, 2-(4-Chlorophenyl)-4-methyl-4-[[3-(trifluoromethyloxy)-phenyl]sulfonyl]-tetrahydro-pyran], for which the inhibition at 3 µM is over 95%.

Regarding `O=S(=O)(c1cccc(C(F)(F)F)c1)C1CCOC(c2ccc(Cl)cc2)C1` (stereo not shown) [SC-401, 2-(4-Chlorophenyl)-4-[[3-(trifluoromethyl)phenyl]sulfonyl]-tetrahydro-pyran], the inhibition at 3 µM was in the range of 75 to 95%.

For the compound `O=S(=O)(c1cccc(C(F)(F)F)c1)C1CCOC(c2ccc(Cl)cc2)C1` (stereo not shown) [SC-402, 2-(4-Chlorophenyl)-4-[[3-(trifluoromethyl)phenyl]sulfonyl]-tetrahydro-pyran], the “Activity Category: %-Inhib” value is on record as “A (%-Inhibition >95%)”.

Take `CC(C)Oc1cccc(S(=O)(=O)C2(C)CCOC(c3ccc(S(C)(=O)=O)cc3F)C2)c1` (stereo not shown) [SC-500, 2-(2-Fluoro-4-methylsulfonyl-phenyl)-4-[(3-isopropoxy-phenyl)sulfonyl]-4-methyl-tetrahydro-pyran]: the inhibition at 3 µM was 75 to 95%.

Take `CC1(S(=O)(=O)c2cccc(OC(F)(F)F)c2)CCOC(c2ccc(S(C)(=O)=O)cc2F)C1` (stereo not shown) [SC-502, 2-(2-Fluoro-4-methylsulfonyl-phenyl)-4-methyl-4-[[3-(trifluoromethyloxy)-phenyl]sulfonyl]-tetrahydro-pyran]: the inhibition at 3 µM was over 95%.

As to `CC(C)c1cccc(S(=O)(=O)C2(C)CCOC(c3ccc(S(C)(=O)=O)cc3F)C2)c1` (stereo not shown) [SC-506, 2-(2-Fluoro-4-methylsulfonyl-phenyl)-4-[(3-isopropyl-phenyl)sulfonyl]-4-methyl-tetrahydro-pyran], the inhibition at 3 µM is over 95%.

As for `CC1(S(=O)(=O)c2cccc(C(F)F)c2)CCOC(c2ccc(S(C)(=O)=O)cc2F)C1` (stereo not shown) [SC-509, 4-[[3-(Difluoro-methyl)-phenyl]sulfonyl]-2-(2-fluoro-4-methylsulfonyl-phenyl)-4-methyl-tetrahydro-pyran], the inhibition at 3 µM was in the range of 75 to 95%.

With `CC1(S(=O)(=O)c2cccc(C(F)F)c2)CCOC(c2ccc(S(C)(=O)=O)cc2F)C1` (stereo not shown) [SC-510, 4-[[3-(Difluoro-methyl)-phenyl]sulfonyl]-2-(2-fluoro-4-methylsulfonyl-phenyl)-4-methyl-tetrahydro-pyran], the “Activity Category: %-Inhib” value is recorded as “A (%-Inhibition >95%)”.

Consider `CC1(S(=O)(=O)c2cccc(C3CC3)c2)CCOC(c2ccc(S(C)(=O)=O)cc2F)C1` (stereo not shown) [SC-512, 4-[(3-Cyclopropyl-phenyl)sulfonyl]-2-(2-fluoro-4-methylsulfonyl-phenyl)-4-methyl-tetrahydro-pyran], for which the inhibition at 3 µM lay in the range of 75 to 95%.

Take `CC1(S(=O)(=O)c2cccc(C3CC3)c2)CCOC(c2ccc(S(C)(=O)=O)cc2F)C1` (stereo not shown) [SC-513, 4-[(3-Cyclopropyl-phenyl)sulfonyl]-2-(2-fluoro-4-methylsulfonyl-phenyl)-4-methyl-tetrahydro-pyran]: the “Activity Category: %-Inhib” value is “A (%-Inhibition >95%)”.

Regarding `CC1(S(=O)(=O)c2cccc(OC(F)F)c2)CCOC(c2ccc(S(C)(=O)=O)cc2F)C1` (stereo not shown) [SC-516, 4-[[3-(Difluoro-methoxy)-phenyl]sulfonyl]-2-(2-fluoro-4-methylsulfonyl-phenyl)-4-methyl-tetrahydro-pyran], the “Activity Category: %-Inhib” value was “C (%-Inhibition >40% up to ≦75%)”.

Turning to `CC1(S(=O)(=O)c2cccc(OC(F)F)c2)CCOC(c2ccc(S(C)(=O)=O)cc2F)C1` (stereo not shown) [SC-517, 4-[[3-(Difluoro-methoxy)-phenyl]sulfonyl]-2-(2-fluoro-4-methylsulfonyl-phenyl)-4-methyl-tetrahydro-pyran], the “Activity Category: %-Inhib” value is on record as “B (%-Inhibition >75% up to ≦95%)”.

Regarding `CC1(S(=O)(=O)c2cc(F)cc(C(F)(F)F)c2)CCOC(c2ccc(S(C)(=O)=O)cc2F)C1` (stereo not shown) [SC-518, 2-(2-Fluoro-4-methylsulfonyl-phenyl)-4-[[3-fluoro-5-(trifluoromethyl)-phenyl]sulfonyl]-4-methyl-tetrahydro-pyran], the inhibition at 3 µM was in the range of 75 to 95%.

Regarding `CC1(S(=O)(=O)c2cc(F)cc(C(F)(F)F)c2)CCOC(c2ccc(S(C)(=O)=O)cc2F)C1` (stereo not shown) [SC-519, 2-(2-Fluoro-4-methylsulfonyl-phenyl)-4-[[3-fluoro-5-(trifluoromethyl)-phenyl]sulfonyl]-4-methyl-tetrahydro-pyran], the “Activity Category: %-Inhib” value is “A (%-Inhibition >95%)”.
